Reference: patent US20260355182A1, “ISOQUINOLINE DERIVATIVE, SYNTHESIS METHOD THEREFOR, AND USE THEREOF” (Harbin Gloria Pharmaceuticals Co., Ltd., priority 2023, published 2026)

What was measured:
[1] = test system: mouse and rat models of Parkinson's disease, Alzheimer's disease, multiple system atrophy; conditions: cited from earlier work
rats = conditions: combined administration of terazosin and propranolol; cited from earlier work
[2] = test system: MPTP-induced Parkinson's disease model mice; test: MPTP-induced mouse model of Parkinson's disease, rotarod and tyrosine hydroxylase Western blot; type: in vivo; conditions: terazosin 0.1 mg/Kg
Procedure: Male mice aged 3 months were used and fed normally. The acute MPTP modeling method (see Sonsalla P K, Heikkila R E. The influence of dose and dosing interval on MPTP-induced dopaminergic neurotoxicity in mice. Eur J Pharmacol 1986; 129(3): 339-45.) was employed. MPTP was injected intraperitoneally four times in total at a dose of 20 mg/kg body weight per injection, with a 2-hour interval between each injection. MPTP was dissolved in normal saline, and the control group received an equal dose of normal saline. T2 was dissolved in DMSO and diluted with normal saline to the desired concentration. Accordingly, equal doses of DMSO and normal saline were administered during the treatment. On the day of MPTP model establishment, mice were administered either T2 (treatment group) or DMSO (control group). Subsequently, mice in all groups were administered the corresponding drugs daily. Mouse behavior was tested using a rotarod (E103, UGO BASILE). First, mice were pre-trained for two consecutive days at a constant speed of 15 revolutions per minute (15 rpm) until they could stay on the rod for more than 60 seconds. On day 7 after MPTP injection, mice were tested on the rotarod in an accelerating mode (2 rpm to 45 rpm). The latency to fall from the rotarod was recorded, and the behavior was monitored by a camera. After the experiment, the mice were sacrificed, and the striatal brain tissue was harvested for Western blot assay. Tyrosine hydroxylase (TH) is a protein specifically expressed in dopaminergic neurons. Therefore, whether dopaminergic neurons were damaged can be determined by Western blot assay using an anti-TH antibody.

[3] = test system: MPTP-induced Parkinsonian mouse model; test: MPTP-induced Parkinsonian mouse model, rotarod and TH Western blot (T6); type: in vivo; conditions: TZ, MPTP 20 mg/kg
Procedure: Mice were administered MPTP at 20 mg/kg to induce Parkinsonian motor impairment and dopaminergic neuronal injury. […] In FIG. 13, A) motor coordination and endurance were assessed using the rotarod test and are expressed as the time remaining on the rotating rod. […] Actin was used as a loading control. […] Data are presented as mean±error bars, with individual points representing biological replicates. Significance of one-way ANOVA analysis is indicated as P<0.05 (*), P<0.01 (**), and P<0.001 (***).

patients = conditions: cited from earlier work
Pgk1 = target: T1, Pgk1 (Homo sapiens, UniProt P00558); test: In vitro biochemical Pgk1 enzymatic activity assay (NADH production); set-up: GAPDH-coupled NADH assay; conditions: 1.6 mM GAP, 1 mM β-NAD, 1 mM ADP, 20 ng/μL GAPDH, pH 8.6, 10 minutes
T1 sequence (P00558 1-417): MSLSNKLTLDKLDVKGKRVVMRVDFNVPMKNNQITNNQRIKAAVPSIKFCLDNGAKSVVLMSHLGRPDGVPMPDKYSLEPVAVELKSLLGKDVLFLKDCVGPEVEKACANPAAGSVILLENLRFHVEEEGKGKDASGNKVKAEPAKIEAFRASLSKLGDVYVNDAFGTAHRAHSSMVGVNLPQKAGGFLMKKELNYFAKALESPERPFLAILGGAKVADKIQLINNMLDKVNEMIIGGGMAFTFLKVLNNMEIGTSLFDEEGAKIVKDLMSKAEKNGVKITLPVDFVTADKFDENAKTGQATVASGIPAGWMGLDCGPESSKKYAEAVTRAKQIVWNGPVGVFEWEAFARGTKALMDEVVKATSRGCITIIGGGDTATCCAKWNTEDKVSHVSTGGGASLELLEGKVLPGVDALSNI
Procedure: Human Pgk1 cDNA was cloned into the pEASYTM-E2 vector (TransGen Biotech) containing a His tag. Protein expression was induced in BL21(DE3) chemocompetent cells (TransGen Biotech) with 0.5 mM IPTG. After lysing cells in extraction buffer (20 mM sodium phosphate, 500 mM NaCl, 5 mM imidazole, 5% glycerol, protease inhibitor cocktail, pH 7.9), the supernatant was purified with nickel beads (AdarBiotech). The His-tagged Pgk1 was eluted with the elution buffer (20 mM sodium phosphate, 500 mM NaCl, 80 mM imidazole, protease inhibitor cocktail, pH 7.9). The activity of Pgk1 can be measured by monitoring the rate of NADH production, as NADH accumulated as the reaction proceeded. Purified Pgk1-His protein ([…]) was added to the reaction buffer (20 mM Tris, 100 mM NaCl, 2 mM DTT, 0.1 mM MgSO4, 10 mM NaHPO4, pH 8.6), and the substrates (1.6 mM GAP, 1 mM β-NAD, 1 mM ADP, 20 ng/μL GAPDH) was added. […] After reaction for 10 minutes at room temperature, the absorbance wavelength at 339 nm was measured using a microplate reader (Molecular Devices, SpectraMax i3x), and this wavelength corresponds to NADH levels.

primary mouse neurons = test: Cellular status and glucose metabolism-related gene expression in primary mouse neurons; type: cell-based; conditions: normoxic, 72 h; TZ 10 μM, T6 10 PM (so in the source)
From the text: In FIG. 10, A) representative bright-field images show the cellular status of primary neurons after treatment. […] The analyzed genes included G6PD, HK2, LDHA, PDK1, PGK1, and SLC2A1/GLUT1. […] TZ treatment produced a similar but generally more moderate metabolic gene-response profile, including increased LDHA, PDK1, and SLC2A1/GLUT1 expression. […] Error bars indicate variation among measurements. […] The results support the use of T6 or related compounds as agents capable of regulating neuronal metabolic status and glucose metabolism-associated pathways.

db/db mice = test: Acute glucose-response assay in non-fasted db/db mice; type: in vivo; conditions: s.c., 2 h; TZ 0.5, liraglutide 0.6, T6 0.5 mg/Kg
Procedure: The db/db mice were used to evaluate the glucose-lowering activity of compound T6 in comparison with reference metabolic agents (TZ 0.5 mg/Kg, liraglutide 0.6 mg/Kg, T6 0.5 mg/Kg). In FIG. 15, A) for the acute glucose-response assay, drugs were administered to non-fasted db/db mice. Immediately after drug administration (s. c.), mice were deprived of food and water, and blood glucose levels were measured from tail blood samples 2 h later. The relative percentage change in blood glucose was calculated by comparing glucose levels before and after treatment in the same animal. […] HbA1c levels were then measured using a glycated hemoglobin A1c enzyme-linked immunosorbent assay, also referred to as a mouse HbA1c ELISA assay. […] Data are presented as mean±error bars, with individual circles representing individual animals. Statistical significance is indicated as P<0.001 (**) and P<0.0001 (***).

Wild-type mice (C57BL/6) = test: Blood glucose in wild-type mice; type: in vivo; conditions: 0.1 mg/kg i.p., C57BL/6, fasted 6 hours after administration
Procedure: Wild-type mice (C57BL/6) aged 3 months to 4 months under normal feeding conditions were intraperitoneally injected with different drugs at 0.1 mg/kg. Mice injected with normal saline served as the control group. Mice were fasted for 6 hours after administration. Blood was collected from the tail of each mouse to measure blood glucose levels. Each group consisted of 9 mice.

SK-N-SH cells = test: Dose-effect relationship on cellular ATP levels in cultured SK-N-SH cells; type: cell-based, human
Procedure: SK-N-SH cells were seeded in a 6-well plate at a density of 6×10^4 per well. Cells were cultured for 12 hours under 5% O2, and the drug was added. Cells were harvested after 48 hours. Cellular ATP levels were measured using a Promega ATP assay kit. The experiment was repeated 5 times to 7 times.

[4] = test system: phosphoglycerate kinase 1 (Pgk1); conditions: cited from earlier work
diabetic patients = conditions: cited from earlier work

COc1cc2nc(N3CCN(C(=O)C4CCCO4)CC3)nc(N)c2cc1OC (stereo not drawn) [Terazosin, terazosin]
Therapeutic and prophylactic effects [1]: exerts therapeutic and prophylactic effects | Blood glucose in rats (rats): did not affect blood glucose in rats | Motor ability (rotarod) ([2]; day 7 after MPTP): improved the motor ability of mice | Tyrosine hydroxylase level / dopaminergic neurons ([2]; striatum, Western blot): exerted a protective effect on dopaminergic neurons | Rotarod performance (TZ) [3]: weaker improvement | Side effects (patients): intraoperative floppy iris syndrome (IFIS), hypotension, fatigue, dizziness, syncope, and blurred vision | Concentration for best activation of Pgk1 (Pgk1; role: activator): 1 µM | Effect on Pgk1 enzymatic activity at high concentration (Pgk1; role: inhibitor, 100 μM): can inhibit Pgk1 enzymatic activity | Neuronal cellular morphology/status (primary mouse neurons): detectable changes in neuronal cellular morphology/status | Acute change in blood glucose (db/db mice): weaker acute effect | Hypoglycemic effect (Wild-type mice (C57BL/6)): did not exhibit a hypoglycemic effect | Inhibition of cell growth (SK-N-SH cells; 50 μM, SK-N-SH cells): a tendency to inhibit cell growth | Optimal dose for cellular ATP levels (SK-N-SH cells; doses 5, 10 and 50 μM, 48 hours, 5% O2): 10 µM | Effect on Pgk1, high concentration ([4]; high concentrations): can inhibit Pgk1 | Effect on Pgk1, low concentration ([4]; low concentrations): can activate Pgk1 | Binding to / activation of Pgk1 ([4]; previous studies): can activate Pgk1 | Dissociation of ATP from Pgk1 protein ([4]; published studies): promoted the dissociation of ATP from the Pgk1 protein | Blood glucose and lipid levels (diabetic patients): efficacy is extremely limited or ineffective
